# Where two headings read alike, the source gives them in different places. Starred links: 1 amine or outer side, 2 acyl side, 3 side chain; linkers in the order of their positions; H or OH if unused. Positions of bridges follow the written chain, without caps; N, C: chain ends. Non-standard residues stand in square brackets, D forms with d. Residues, ends and D or L forms follow the SMILES beside them. Ala(piperidin-4-yl) = O=C([C@H](CC1CCN([*:3])CC1)N[*:1])[*:2]; Phe(4-COOH) = N[C@@H](Cc1ccc(C(=O)O)cc1)C(=O)O; Phe(4-F) = N[C@@H](Cc1ccc(F)cc1)C(=O)O; NMeE = CN[C@@H](CCC(=O)O)C(=O)O; Cha = N[C@@H](CC1CCCCC1)C(=O)O; Cit = NC(=O)NCCC[C@H](N)C(=O)O; NMeNle = CCCC[C@H](NC)C(=O)O; Aib = CC(C)(N)C(=O)O
# Assays:
# [1] = test system: SARS-CoV-2 (JPN/TY/WK-521 strain); assay type: cell-based; design: key: the case where the peptide was found to have anti-SARS-CoV-2 activity when added at 50 nM was designated as “2”; the case where no activity was found upon the addition at 50 nM but the activity was found at 1 μM was designated as “1”; conditions: peptide added at 50 nM or 1 μM
# [2] = biological target: SARS-CoV-2-derived S protein, Wuhan strain (Severe acute respiratory syndrome coronavirus 2, UniProt P0DTC2); assay type: cell-based
# [3] = test system: SARS-CoV-2 mouse subculture strain QHmusX; assay type: in vivo, BALB/c mice; conditions: for lung histology (HE staining): day 10; for weight loss / respiratory symptoms: mouse, in vivo
# [4] = test system: SARS-CoV2 (USA WA1/2020 strain); conditions: 72 h
# [5] = in vitro; conditions: African green monkey
# [6] = test system: SARS-CoV-2 (USA WA1/2020 strain); assay type: in vivo, Golden Syrian hamsters; conditions: for Chronic active inflammation (anterior lobe): Mild / Chronic active inflammation (anterior lobe): Moderate / Chronic active inflammation (anterior lobe): Severe / Chronic active inflammation (posterior lobe): Mild / Chronic active inflammation (posterior lobe): Minor / Chronic active inflammation (posterior lobe): Moderate / Chronic active inflammation (posterior lobe): Severe: cases; for Gross findings of the lung: Mottled fading (number of animals) / Gross findings of the lung: No change (number of animals): 6 animals
# [7] = biological target: spike protein of SARS-CoV-2 (GENE Accession No. YP 009724390) (Severe acute respiratory syndrome coronavirus 2, UniProt P0DTC2); experiment: Screening for target protein-binding peptides
# Text: First, the spike protein of SARS-CoV-2 (GENE Accession No. YP 009724390) was set to a target and the screening method described in International Publication WO2014/119600, International Publication WO2012/033154, or International Publication WO 2007/066627 was used to discover the target protein-binding peptides.
structure (smiles),measurement,setting,value
CCCC[C@H]1C(=O)NC(C)(C)C(=O)N[C@@H](CC2CCCCC2)C(=O)N[C@@H](Cc2ccc(F)cc2)C(=O)NC(C)(C)C(=O)N[C@@H](Cc2ccc(O)cc2)C(=O)N[C@@H](Cc2ccc(O)cc2)C(=O)N[C@@H](Cc2ccc(C(=O)O)cc2)C(=O)N[C@@H](CC2CCNCC2)C(=O)N[C@@H](CC2CCCCC2)C(=O)N[C@H](C(=O)N[C@H](CCC(=O)O)C(N)=O)CSCC(=O)N(C)[C@@H](CCC(=O)O)C(=O)N1C [Peptide 5555_p020] ({CH2CO}-[NMeE][NMeNle][Aib][Cha][Phe(4-F)][Aib]YY[Phe(4-COOH)][Ala(piperidin-4-yl)][Cha]C[dE]-NH2; thioether N-12),Anti-SARS-CoV-2 activity,[1],2
same,Imax: % (at 500 nM),[2],99%
same,lung histology (HE staining),[3]; 10 mg administration group,mild aggregation of lymphocytes (*) was observed around blood vessels near the bronchioles in some lung lobes
same,weight loss / respiratory symptoms,[3],no findings suggestive of weight loss or respiratory symptoms were observed
same,IC50,[4],2.3 nM
same,CC50 at 72 h,[5],> 1000 nM
CCCC[C@H]1C(=O)NC(C)(C)C(=O)N[C@@H](CC2CCCCC2)C(=O)N[C@@H](Cc2ccc(F)cc2)C(=O)N[C@H](CC(=O)O)C(=O)N[C@@H](Cc2ccc(O)cc2)C(=O)N[C@@H](Cc2ccc(O)cc2)C(=O)N[C@@H](CCCNC(N)=O)C(=O)N[C@H](CCCCN)C(=O)N[C@@H](CC2CCCCC2)C(=O)N[C@H](C(=O)N[C@H](CCC(=O)O)C(=O)O)CSCC(=O)N(C)[C@@H](CCC(=O)O)C(=O)N1C [Peptide 5555_p028] ({CH2CO}-[NMeE][NMeNle][Aib][Cha][Phe(4-F)][dD]YY[Cit][dK][Cha]C[dE]-OH; thioether N-12),Anti-SARS-CoV-2 activity,[1],2
same,Imax: % (at 500 nM),[2],91%
same,lung histology (HE staining),[3]; 30 mg administration group,mild aggregation of cells (*) was observed around blood vessels in almost all lung lobes
same,weight loss / respiratory symptoms,[3],the rate of weight loss improved significantly (P<0.05) after the fourth day
same,Chronic active inflammation (anterior lobe): Mild,[6]; 1 mg/kg (n = 6),5
same,Chronic active inflammation (anterior lobe): Moderate,[6]; 1 mg/kg (n = 6),1
same,Chronic active inflammation (anterior lobe): Severe,[6]; 1 mg/kg (n = 6),0
same,Chronic active inflammation (posterior lobe): Mild,[6]; 1 mg/kg (n = 6),5
same,Chronic active inflammation (posterior lobe): Minor,[6]; 1 mg/kg (n = 6),0
same,Chronic active inflammation (posterior lobe): Moderate,[6]; 1 mg/kg (n = 6),1
same,Chronic active inflammation (posterior lobe): Severe,[6]; 1 mg/kg (n = 6),0
same,"body weight, Mean","[6]; 1 mg/kg i.p., Day 0",126.75
same,"body weight, Mean","[6]; 1 mg/kg i.p., Day 1",124.03
same,"body weight, Mean","[6]; 1 mg/kg i.p., Day 2",122.3
same,"body weight, Mean","[6]; 1 mg/kg i.p., Day 3",120.17
same,"body weight, Mean","[6]; 1 mg/kg i.p., Day 4",120.33
same,"body weight, Mean","[6]; 1 mg/kg i.p., Day 5",120.75
same,"body weight, Mean","[6]; 1 mg/kg i.p., Day −6",118.63
same,Gross findings of the lung: Mottled fading (number of animals),[6]; 1 mg/kg,6 number of animals
same,Gross findings of the lung: No change (number of animals),[6]; 1 mg/kg,0 number of animals
same,"SARS-CoV-2 genome copy number in lung (RT-qPCR), Log10 of Geometric mean (copy number/gram)","[6]; 1 mg/kg, Day 5",8.15 copy number/gram
same,SARS-CoV-2 genome copy number in lung vs solvent control,[6]; 5 mg/kg,statistically significant decrease
same,Chronic active inflammation (anterior lobe): Mild,[6]; 5 mg/kg (n = 6),1
same,Chronic active inflammation (anterior lobe): Moderate,[6]; 5 mg/kg (n = 6),5
same,Chronic active inflammation (anterior lobe): Severe,[6]; 5 mg/kg (n = 6),0
same,Chronic active inflammation (posterior lobe): Mild,[6]; 5 mg/kg (n = 6),3
same,Chronic active inflammation (posterior lobe): Minor,[6]; 5 mg/kg (n = 6),2
same,Chronic active inflammation (posterior lobe): Moderate,[6]; 5 mg/kg (n = 6),1
same,Chronic active inflammation (posterior lobe): Severe,[6]; 5 mg/kg (n = 6),0
same,Chronic active inflammation (posterior lobe): Minor,"[6]; 5 mg/kg (n = 6), listed as 5555_028",Minor lung inflammation was observed in the posterior lobe in two cases
same,"body weight, Mean","[6]; 5 mg/kg i.p., Day 0",126.52
same,"body weight, Mean","[6]; 5 mg/kg i.p., Day 1",122.87
same,"body weight, Mean","[6]; 5 mg/kg i.p., Day 2",120.87
same,"body weight, Mean","[6]; 5 mg/kg i.p., Day 3",120.42
same,"body weight, Mean","[6]; 5 mg/kg i.p., Day 4",118.52
same,"body weight, Mean","[6]; 5 mg/kg i.p., Day 5",119.68
same,"body weight, Mean","[6]; 5 mg/kg i.p., Day −6",118.67
same,Gross findings of the lung: Mottled fading (number of animals),[6]; 5 mg/kg,6 number of animals
same,Gross findings of the lung: No change (number of animals),[6]; 5 mg/kg,0 number of animals
same,"SARS-CoV-2 genome copy number in lung (RT-qPCR), Log10 of Geometric mean (copy number/gram)","[6]; 5 mg/kg, Day 5",7.72 copy number/gram
same,SARS-CoV-2 genome copy number in lung vs solvent control,[6]; 25 mg/kg,decreasing trend
same,Chronic active inflammation (anterior lobe): Mild,[6]; 25 mg/kg (n = 6),2
same,Chronic active inflammation (anterior lobe): Moderate,[6]; 25 mg/kg (n = 6),4
same,Chronic active inflammation (anterior lobe): Severe,[6]; 25 mg/kg (n = 6),0
same,Chronic active inflammation (posterior lobe): Mild,[6]; 25 mg/kg (n = 6),6
same,Chronic active inflammation (posterior lobe): Minor,[6]; 25 mg/kg (n = 6),0
same,Chronic active inflammation (posterior lobe): Moderate,[6]; 25 mg/kg (n = 6),0
same,Chronic active inflammation (posterior lobe): Severe,[6]; 25 mg/kg (n = 6),0
same,"body weight, Mean","[6]; 25 mg/kg i.p., Day 0",129.63
same,"body weight, Mean","[6]; 25 mg/kg i.p., Day 1",126.85
same,"body weight, Mean","[6]; 25 mg/kg i.p., Day 2",126.68
same,"body weight, Mean","[6]; 25 mg/kg i.p., Day 3",126.22
same,"body weight, Mean","[6]; 25 mg/kg i.p., Day 4",124.45
same,"body weight, Mean","[6]; 25 mg/kg i.p., Day 5",121.62
same,"body weight, Mean","[6]; 25 mg/kg i.p., Day −6",118.95
same,Gross findings of the lung: Mottled fading (number of animals),[6]; 25 mg/kg,4 number of animals
same,Gross findings of the lung: No change (number of animals),[6]; 25 mg/kg,2 number of animals
same,Gross findings of the lung: No change (number of animals),"[6]; 25 mg/kg, listed as 5555_028",no lung fading was observed in two cases
same,"SARS-CoV-2 genome copy number in lung (RT-qPCR), Log10 of Geometric mean (copy number/gram)","[6]; 25 mg/kg, Day 5",8.76 copy number/gram
same,severity of lung inflammation vs solvent control,"[6]; 1, 5, or 25 mg/kg i.p.",The severity of lung inflammation was reduced
same,weight loss vs solvent control,"[6]; hamster, in vivo",the weight loss was suppressed to the same degree at any of the doses
same,IC50,[4],3.5 nM
"C[C@H]1C(=O)N(C)[C@@H](Cc2ccccc2)C(=O)N[C@@H](CO)C(=O)N[C@@H](CC2CCCCC2)C(=O)N[C@@H](Cc2ccc(O)cc2)C(=O)N[C@@H](CO)C(=O)N[C@@H](Cc2ccc(O)cc2)C(=O)N[C@@H](Cc2ccc(O)cc2)C(=O)N[C@@H](CCCNC(=N)N)C(=O)N[C@@H](CCCNC(=N)N)C(=O)N[C@@H](CC2CCCCC2)C(=O)N[C@H](C(=O)N[C@H](CCC(=O)O)C(N)=O)CSCC(=O)N1C [Peptide 5555_p000, MeA-MeF-S-Cha-Y-S-Y-Y-R-R-Cha-C]",Anti-SARS-CoV-2 activity,[1],2
same,Imax: % (at 500 nM),[2],100%
same,binding to the spike protein of SARS-CoV-2,[7],binds to the spike protein of SARS-CoV-2
same,IC50,[4],23.9 nM
same,CC50 at 72 h,[5],> 1000 nM

# — US20240209027A1, “PEPTIDE AND PEPTIDE-CONTAINING COMPOSITION” (PeptiAID Inc.,, priority 2021, published 2024)
